We go through 39 compounds from the Kinase Knowledgebase extract (Sharma et al. 2016).

A value given as a limit tells only on which side of the number the result lay.

MAPK14, sequence (Q16539 whole entry, looked up): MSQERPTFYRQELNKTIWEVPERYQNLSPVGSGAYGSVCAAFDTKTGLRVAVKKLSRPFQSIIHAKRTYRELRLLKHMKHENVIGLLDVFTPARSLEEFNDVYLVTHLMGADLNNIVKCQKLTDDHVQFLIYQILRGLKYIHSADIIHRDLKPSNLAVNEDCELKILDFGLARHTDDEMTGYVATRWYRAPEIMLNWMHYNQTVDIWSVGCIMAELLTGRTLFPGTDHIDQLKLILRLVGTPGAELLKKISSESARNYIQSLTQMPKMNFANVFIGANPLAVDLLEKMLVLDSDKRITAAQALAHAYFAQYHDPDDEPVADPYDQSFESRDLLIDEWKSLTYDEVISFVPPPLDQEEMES

The assay has as its target MAPK14 (UniProt Q16539). The assay can be described thus: Inhibition of MAPK14 Kinase Activity.
Compound `COc1ccc(C(C(F)(F)F)C(F)(F)F)cc1NC(=O)Nc1ccc(Oc2cc(C)nc(N)n2)c2ccccc12` had a half-inhibitory concentration (IC50) of under 1000 nM. The figure for `COc1ccc(C(F)(F)F)cc1NC(=O)Nc1ccc(Oc2cc(C)nc(NC(C)C)n2)c2ccccc12` is under 1000 nM; for `COc1ccc(OC(F)(F)F)cc1NC(=O)Nc1ccc(Oc2cc(C)nc(NCCN(C)C)n2)c2ccccc12` it is under 1000 nM; for `COc1ccc(CC(F)(F)F)cc1NC(=O)Nc1ccc(Oc2cc(C)nc(N)n2)c2ccccc12` it is under 1000 nM.

Compound `COc1ccc(C(F)(F)F)cc1NC(=O)Nc1ccc(Oc2cc(C)nc(NCC3CC3)n2)c2ccccc12` displayed a concentration for half-maximal inhibition (IC50) of under 1000 nM.

For the compound `COc1ccc(C(F)(F)F)cc1NC(=O)Nc1ccc(Oc2cc(C)nc(C)n2)c2ccccc12`, the concentration for half-maximal inhibition (IC50) is under 1000 nM. The compound `COc1ccc(C(C)C(F)(F)F)cc1NC(=O)Nc1ccc(Oc2cc(C)nc(N)n2)c2ccccc12` (centres undefined) gave an IC50 of under 1000 nM. `COCCNc1nc(C)cc(Oc2ccc(NC(=O)Nc3cc(OC(F)(F)F)ccc3OC)c3ccccc23)n1` registered an IC50 of under 1000 nM.

As for `COCCNc1nc(C)cc(Oc2ccc(NC(=O)Nc3cc(C(F)(F)F)ccc3OC)c3ccccc23)n1`, the half-maximal inhibitory concentration (IC50) is under 1000 nM. The figure for `COc1ccc(C(F)(F)F)cc1NC(=O)Nc1ccc(Oc2cc(C)nc(NCCN3CCOCC3)n2)c2ccccc12` is under 1000 nM.

As to `COc1ccc(OC(F)(F)F)cc1NC(=O)Nc1ccc(Oc2cc(C)nc(NCCCN3CCOCC3)n2)c2ccccc12`, the 50% inhibitory concentration (IC50) was under 1000 nM.

Compound `COc1ccc(OC(F)(F)F)cc1NC(=O)Nc1ccc(Oc2cc(C)nc(CN(C)C)n2)c2ccccc12` returned an IC50 of under 1000 nM.

For `COc1ccc(OC(F)(F)F)cc1NC(=O)Nc1ccc(Oc2cc(C)nc(CN3CCCC3)n2)c2ccccc12`, the IC50 was under 1000 nM.

As for `COc1ccc(CC(F)(F)F)cc1NC(=O)Nc1ccc(Oc2cc(C)nc(NCCCN3CCOCC3)n2)c2ccccc12`, the IC50 was under 1000 nM. Then `COc1ccc(C(C(F)(F)F)C(F)(F)F)cc1NC(=O)Nc1ccc(Oc2cc(C)nc(NCCN(C)C)n2)c2ccccc12`, with under 1000 nM; and `CCNc1nc(C)cc(Oc2ccc(NC(=O)Nc3cc(C(F)(F)F)ccc3OC)c3ccccc23)n1`, with under 1000 nM; and `COc1ccc(CC(F)(F)F)cc1NC(=O)Nc1ccc(Oc2cc(C)nc(OCC3CCN(C)CC3)n2)c2ccccc12`, with under 1000 nM. The figure for `COc1ccc(OC(F)(F)F)cc1NC(=O)Nc1ccc(Oc2cc(C)nc(CN3CCOCC3)n2)c2ccccc12` is under 1000 nM.

`COc1ccc(CC(F)(F)F)cc1NC(=O)Nc1ccc(Oc2cc(C)nc(NCCCN(C)C)n2)c2ccccc12` had an IC50 of under 1000 nM. Turning to `COc1ccc(OC(F)(F)F)cc1NC(=O)Nc1ccc(Oc2cc(C)nc(CN3CCN(C)CC3)n2)c2ccccc12`, the IC50 was under 1000 nM. Regarding `COc1ccc(C(F)(F)C(F)(F)F)cc1NC(=O)Nc1ccc(Oc2cc(C)nc(N)n2)c2ccccc12`, the IC50 is under 1000 nM. The compound `COc1ccc(C(F)(F)F)cc1NC(=O)Nc1ccc(Oc2cc(C)nc(N)n2)c2ccccc12` had an IC50 of under 1000 nM. Then `CNc1nc(C)cc(Oc2ccc(NC(=O)Nc3cc(C(F)(F)F)ccc3OC)c3ccccc23)n1`, with under 1000 nM. For `COc1ccc(C(F)(F)F)cc1NC(=O)Nc1ccc(Oc2cc(C)nc(NCCN(C)C)n2)c2ccccc12`, the half-maximal inhibitory concentration (IC50) is under 1000 nM. Then `CCNc1nc(C)cc(Oc2ccc(NC(=O)Nc3cc(OC(F)(F)F)ccc3OC)c3ccccc23)n1`, with under 1000 nM. Then `COc1ccc(OC(F)(F)F)cc1NC(=O)Nc1ccc(Oc2cc(C)nc(NCCN3CCCC3)n2)c2ccccc12`, with under 1000 nM; and `COc1nc(C)cc(Oc2ccc(NC(=O)Nc3cc(C(F)(F)F)ccc3OC)c3ccccc23)n1`, with under 1000 nM; and `COc1ccc(OC(F)(F)F)cc1NC(=O)Nc1ccc(Oc2cc(C)nc(OCCn3ccnc3)n2)c2ccccc12`, with under 1000 nM. The figure for `COc1ccc(C(C(F)(F)F)C(F)(F)F)cc1NC(=O)Nc1ccc(Oc2cc(C)nc(CN3CCOCC3)n2)c2ccccc12` is under 1000 nM; for `COc1ccc(C(F)(F)F)cc1NC(=O)Nc1ccc(Oc2cc(C)nc(NCCN3CCCC3)n2)c2ccccc12` it is under 1000 nM. Take `CNc1nc(C)cc(Oc2ccc(NC(=O)Nc3cc(OC(F)(F)F)ccc3OC)c3ccccc23)n1`: the IC50 is under 1000 nM. Consider `COCC(C)Nc1nc(C)cc(Oc2ccc(NC(=O)Nc3cc(C(F)(F)F)ccc3OC)c3ccccc23)n1` (centres undefined), for which the half-inhibitory concentration (IC50) is under 1000 nM.

`COc1ccc(C(F)(F)F)cc1NC(=O)Nc1ccc(Oc2cc(C)nc(NCC(O)CO)n2)c2ccccc12` (centres undefined) yielded an IC50 of under 1000 nM. Then `COc1ccc(C(F)(F)F)cc1NC(=O)Nc1ccc(Oc2cc(C)nc(NC3CC3)n2)c2ccccc12`, with under 1000 nM; and `COc1ccc(C(F)(F)F)cc1NC(=O)Nc1ccc(Oc2cc(C)nc(NCC3CCCO3)n2)c2ccccc12` (centres undefined), with under 1000 nM. As for `COc1ccc(C(F)(F)F)cc1NC(=O)Nc1ccc(Oc2cc(C)nc(CN3CCOCC3)n2)c2ccccc12`, the half-inhibitory concentration (IC50) is under 1000 nM. Take `COc1ccc(C(F)(F)F)cc1NC(=O)Nc1ccc(Oc2cc(C)nc(CN(C)C)n2)c2ccccc12`: the half-maximal inhibitory concentration (IC50) was under 1000 nM. Then `COc1ccc(C(F)(F)F)cc1NC(=O)Nc1ccc(Oc2cc(C)nc(CN3CCN(C)CC3)n2)c2ccccc12`, with under 1000 nM; and `COc1c(NC(=O)Nc2ccc(Oc3cc(C)nc(C)n3)c3ccccc23)cc(C(F)(F)F)cc1NS(C)(=O)=O`, with under 1000 nM.

By IC50 is commonly meant the point on the concentration scale where inhibition reaches its midpoint. Low readings indicate greater potency in that assay, high ones weaker potency in that assay.
